Results: patent US6586413B2, “Methods and compositions for reducing ischemic injury of the heart by administering adenosine receptor agonists and antagonists” (The United States of America as represented by the …, priority 1999, dated 2003)
Like-named read-outs stand apart in the source and are kept apart here.

What was measured:
[1] = target: T1, human adenosine A3 receptor (Homo sapiens, UniProt P0DMS8); assay: Preconditioning in chick atrial myocytes transfected with the human A3 receptor; format: cell-based; details: hA3R-transfected vs vector-transfected atrial myocytes
T1 construct: full length cDNA encoding human adenosine A3 receptor subcloned in pcDNA3; expressed in transfected cells; host or cells: chick embryo atrial myocytes, transient calcium phosphate transfection with pcDNA3/hA3R
T1 sequence (P0DMS8 1-318): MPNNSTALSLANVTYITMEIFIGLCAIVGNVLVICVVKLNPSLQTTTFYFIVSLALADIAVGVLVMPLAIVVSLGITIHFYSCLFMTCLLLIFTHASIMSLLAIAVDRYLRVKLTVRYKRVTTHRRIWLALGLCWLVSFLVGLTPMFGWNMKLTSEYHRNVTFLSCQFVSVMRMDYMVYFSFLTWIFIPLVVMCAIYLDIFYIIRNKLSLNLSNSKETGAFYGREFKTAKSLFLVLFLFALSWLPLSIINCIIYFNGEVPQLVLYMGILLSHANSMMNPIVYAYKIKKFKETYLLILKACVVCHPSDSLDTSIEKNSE
Description: Transfection of chick atrial myocytes with the human A3 receptor—Atrial cells were cultured from chick embryos 14 days in ovo and transiently transfected with pcDNA3 (empty vector) or with pcDNA3/hA3R (full length cDNA encoding human adenosine A3 receptor subcloned in pcDNA3) using the calcium phosphate precipitation method. Forty-eight hours after transfection, the cells were exposed to the compounds of the invention and the percentage of myocytes killed during simulated ischemia was determined.
The transfected myocytes were then exposed to the compound for 5 minutes, which was followed by replacement with fresh media and myocytes exposed to normal conditions (non-ischemic) for 10 minutes prior to being exposed to ninety minutes of ischemia. The decrease in the number of myocytes killed in A3 receptor cDNA-transfected myocytes as compared to vector-transfected myocytes was plotted as a function of the concentration of the compound. This decrease in myocytes killed represented an index of the protection mediated via the human adenosine A3 receptor.

[2] = system: cardiac ventricular myocytes cultured from chick embryos; assay: Hypoxia-induced myocyte injury, agent present during prolonged (90 min) hypoxia with glucose deprivation; format: cell-based; details: for creatine kinase released during prolonged simulated ischemia: increasing concentrations, presence and absence of DPCPX (FIGS. 3A-3D); for cardioprotective effect when present during prolonged hypoxia (CK released, % myocytes killed): agonist present during prolonged hypoxia/simulated ischemia
Description: Ventricular cells were cultured from chick embryos 14 days in ovo as previously described (16, 23). Cells were cultivated in a humidified 5% CO2-95% air mixture at 37° C. […] The medium was changed to a HEPES-buffered medium containing (mM) 139 NaCl, 4.7 KCl, 0.5 MgCl2, 0.9 CaCl2, 5 HEPES (N-2-hydroxyethylpiperazine-N′-2-ethanesulfonic acid) and 2% fetal bovine serum, pH 7.4, 37° C. before exposing the myocytes to the various conditions at 37° C. Control myocytes were maintained in the HEPES-buffered media under room air. Ninety-minute exposure of the myocytes to hypoxia with glucose deprivation was used to induce cell injury. Hypoxia was produced by placing the cells in a hypoxic incubator (NuAire) where O2 was replaced by N2 as previously described (16,23). Effects of adenosine receptor agonists and antagonists on the extent of myocyte injury were determined by exposure of the prepared cells to these agents during the prolonged hypoxia.
(§1) Determination of myocyte injury was made at the end of the ninety-minute hypoxia, at which time myocytes were taken out of the hypoxic incubator and re-exposed to room air (normal % O2). Aliquots of the media were then obtained for creatine kinase (CK) activity measurement, which is followed by quantitation of the number of viable cells. Measurement of basal level of cell injury was made after parallel incubation of control cells under normal % O2. The extent of hypoxia-induced injury to the ventricular cell was quantitatively determined by the percentages of cells killed and by the amount of CK released into the media according to a previously described method (16, 23). […] In brief, the media were replaced with a trypsin-EDTA buffer to detach the cells, which was then followed by sedimentation of the viable myocytes. Parallel changes in % cells killed and CK released (16, 23) further validated this assay for % cells killed. The amount of CK was measured as enzyme activity (unit/mg), and increases in CK activity above the control level were determined. The percentage of cells killed was calculated as the number of cells obtained from the control group (representing cells not subjected to any hypoxia or drug treatment) minus the number of cells from the treatment group divided by number of cells in control group multiplied by 100%.

A3 receptor = details: cited from earlier work
[3] = system: ventricular myocytes cultured from chick embryos; assay: Pharmacological preconditioning: 5 min exposure to agent, then 90 min simulated ischemia; format: cell-based; details: for preconditioning / cardioprotective effect: agent alone, 5 min exposure before 90 min ischemia
Description: FIG. 14 is a graph showing that the partial A1 receptor agonist, 8-butylaminoCPA, mimics the cardioprotective effect of ischemic preconditioning. Ventricular myocytes were cultured from chick embryos 14 days in ovo. The ability of the partial A1 agonist, 8-butylaminoCPA (8-butylamino-N^6-cyclopentyladenosine), to induce preconditioning was determined. In brief, myocytes were exposed to 8-butylaminoCPA at the indicated concentrations for 5 min, incubated for 10 min with agonist-free medium, and then exposed to simulated ischemia for 90 min. The extent of myocyte injury was quantitated at the end of the 90 min period by determinating the percentage of cells killed and the amount of creatine kinase (CK) released (units per milligram of cell protein). Data are means±SE of values from five independent experiments.
as §1
Media were then replaced with fresh media, which was then followed by exposure to 90-minute simulated ischemia and the data graphed.

[4] = system: cardiac ventricular myocytes cultured from chick embryos; assay: Hypoxia-induced myocyte injury, agent present during prolonged (90 min) hypoxia with glucose deprivation; format: cell-based; details: agonist added upon reoxygenation after 90 minute hypoxia, kept one additional hour; hypoxia alone 26.5±1.0
[5] = system: isolated cardiac myocytes; assay: Apoptotic cell death by DNA laddering on 1.5% agarose gel; format: cell-based; details: for apoptotic cell death (DNA laddering): 90 min ischemia and 30 min reoxygenation, 10 nM Cl-IB-MECA, 1 μM MRS1191
Description: Such smearing is indicative of a culmination of the apoptotic cell death pathway. Isolated cardiac myocytes were exposed to 90-min ischemia and 30-min reoxygenation (lanes 4 and 5). […] Lanes 1 and 2 represent myocytes not exposed to ischemia or any agent. Data were representative of three experiments.
Isolated cardiac myocytes were exposed to prolonged moderate simulated ischemia (17 hours with 2-3% O2). Lane 3 represents myocytes not exposed to ischemia or any agent. Lane 5 represents myocytes exposed to 17 hours of ischemia. […] Data were representative of three experiments.
Lane 3 represents myocytes not exposed to any agent. Lane 5 represents cardiac myocytes exposed (for three hours) to an agent (a P2X receptor agonist, 2-methylthioATP) known to increase intracellular calcium concentration. Prolonged exposure to 2-methylthioATP or UTP caused increased apoptosis (Lane 7). […] Data were representative of two experiments.
The effects of agents which target the adenosine receptor on apoptosis were initially examined in isolated cardiac myocytes exposed to ischemia (for 90 minutes and 30 minutes of reoxygenation) or agents which increase intracellular calcium levels. Increasing the level of intracellular calcium concentration induces non-ischemia-related apoptosis in vitro. Apoptotic cell death of cardiac myocytes was assessed by determining the extent of smearing or “DNA laddering” on 1.5% agarose gels.

A1 receptor = target: T2, A1 receptor (Rattus norvegicus, UniProt P25099); details: Table II; cited from earlier work
T2 sequence (P25099 1-326): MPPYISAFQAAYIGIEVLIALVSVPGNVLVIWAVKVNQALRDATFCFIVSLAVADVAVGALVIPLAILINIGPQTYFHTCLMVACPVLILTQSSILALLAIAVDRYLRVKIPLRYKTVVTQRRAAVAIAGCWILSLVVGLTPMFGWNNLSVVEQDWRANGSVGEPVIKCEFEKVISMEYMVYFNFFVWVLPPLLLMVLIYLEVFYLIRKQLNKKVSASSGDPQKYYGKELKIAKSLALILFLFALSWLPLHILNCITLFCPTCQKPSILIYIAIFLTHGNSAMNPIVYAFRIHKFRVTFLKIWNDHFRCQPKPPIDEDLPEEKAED

A2a receptor = A2a receptor (Rattus norvegicus, UniProt P30543); details: Table II; cited from earlier work
Sequence of A2a receptor (P30543 whole entry): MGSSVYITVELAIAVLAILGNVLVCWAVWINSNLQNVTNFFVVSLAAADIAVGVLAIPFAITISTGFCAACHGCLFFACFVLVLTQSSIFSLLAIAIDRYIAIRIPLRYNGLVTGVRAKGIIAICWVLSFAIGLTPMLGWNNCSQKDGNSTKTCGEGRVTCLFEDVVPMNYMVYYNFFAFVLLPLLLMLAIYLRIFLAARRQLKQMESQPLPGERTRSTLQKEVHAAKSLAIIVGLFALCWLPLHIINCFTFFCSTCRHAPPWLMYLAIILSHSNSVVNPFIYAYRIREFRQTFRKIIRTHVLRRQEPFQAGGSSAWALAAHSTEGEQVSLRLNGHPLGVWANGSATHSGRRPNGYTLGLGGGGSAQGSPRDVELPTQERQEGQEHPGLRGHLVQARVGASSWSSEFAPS

With `CNC(=O)C1CC(O)C(n2cnc3c(NCc4cccc(I)c4)nc(Cl)nc32)O1` (stereo not shown) [MRS 584] the “preconditioning / protection mediated via human adenosine A3 receptor” value [1] was “can exert the cardioprotective effect of preconditioning via the human adenosine A3 receptor” and the “creatine kinase released during prolonged simulated ischemia” value [2] was “cardioprotective effects”.

For `NCCNC(=O)Cc1ccc(NC(=O)Cc2ccc(Nc3ncnc4c3ncn4[C@@H]3O[C@H](CO)[C@@H](O)[C@H]3O)cc2)cc1` [ADAC, N^6-[4-[[[4-[[[(2-aminoethyl)amino]carbonyl]methyl]anilino]carbonyl]methyl]phenyl]adenosine], the Ki (A3 receptor; Compound 8 table) is listed as 4 nM and the “cardioprotective effect when present during prolonged hypoxia (CK released, % myocytes killed)” value [2] is listed as “able to protect the myocytes when present during the prolonged hypoxia”.

With `OC[C@H]1O[C@@H](n2cnc3c(NC4CCCC4)nc(Cl)nc32)[C@H](O)[C@@H]1O` [CCPA, 2-chloro-N^6-cyclopentyladenosine] the “preconditioning / cardioprotective effect” value [3] was “causes a pronounced cardioprotective effect in the cardiac myocyte”, the “cardioprotective effect when present during prolonged hypoxia (CK released, % myocytes killed)” value [2] was “caused a dose-dependent reduction in the percentage of myocytes killed” and the “% myocytes killed” value [4] was 22.1±1.5%.

In the case of `CNC(=O)C1OC(n2cnc3c(NCc4cccc(C#CCNC(=O)Cc5ccc(NC(=O)Cc6ccc(Nc7ncnc8c7ncn8C7OC(CO)C(O)C7O)cc6)cc5)c4)ncnc32)C(O)C1O` (stereo not shown) [MRS 1543], the “preconditioning / protection mediated via human adenosine A3 receptor” value [1] is reported as “can precondition and induces a cardioprotective effect via the human adenosine A3 receptor”, the “protective effect in combined presence of DPCPX and MRS1191” value ([3]; DPCPX (1 μM) plus MRS1191 (1 μM)) is reported as “completely abolished the protective effect of MRS1543” and the “preconditioning / cardioprotective effect” value [3] is reported as “can pharmacologically precondition the cardiac myocyte and induce a potent cardioprotective effect”. The “protective effect in presence of DPCPX” value ([3]; excess DPCPX (1 μM)) was “only partially blocked by A1 antagonist DPCPX” and the “protective effect in presence of MRS1191” value ([3]; excess MRS1191 (1 μM)) was “only partially attenuated by the A3 antagonist MRS1191”.

In the case of `CCOC(=O)C1=C(C)NC(c2ccccc2)=C(C(=O)OCc2ccccc2)C1C#Cc1ccccc1` (stereo not shown) [MRS 1191, 3-ethyl-5-benzyl-2-methyl-6-phenyl-4-phenylethynyl-1,4-(1)-dihydropyridine-3,5-dicarboxylate], the “effect of antagonist on A1 agonist (CCPA, CHA, ADAC)-induced cardioprotection” value ([2]; antagonist with A1 agonist during prolonged hypoxia) is reported as “neither MRS 1191 nor MRS 1097 was able to block the CCPA-induced cardioprotection”, the “effect of antagonist on A3 agonist (IB-MECA, Cl-IB-MECA)-induced cardioprotection” value ([2]; antagonist with A3 agonist during prolonged hypoxia) is reported as “blocked the Cl-IB-MECA-induced cardioprotection” and the “apoptotic cell death (DNA laddering)” value [5] is reported as “but not the A3 antagonist (MRS1191) reduced apoptotic cell death”.

In the case of `CNC(=O)C1OC(n2cnc3c(NCc4cccc(C#CCNC(=O)CCC(=O)Nc5cccc(/C=C/c6nc7c(c(=O)n(C)c(=O)n7C)n6C)c5)c4)ncnc32)C(O)C1O` (stereo not shown) [MRS 1528], the “preconditioning / protection mediated via human adenosine A3 receptor” value [1] is reported as “can cause preconditioning of the cardiac myocytes via human adenosine A3 receptor”, the “preconditioning effect in presence of A2a agonist CGS21680” value ([3]; CGS21680 (0.3 μM)) is reported as “protective effect of low concentrations of MRS1528 is attenuated by the A2a agonist CGS21680 whereas the protective effect of high concentrations of MRS1528 is not affected” and the “preconditioning effect in presence of A2a antagonist CSC” value ([3]; CSC (1 μM)) is reported as “unaffected by the A2a receptor antagonist CSC”. For the same molecule, the “preconditioning / cardioprotective effect” value [3] was “can activate A3 receptor to induce preconditioning and can simultaneously block the A2a receptor to enhance its preconditioning effect”.

With `CNC(=O)[C@H]1O[C@@H](n2cnc3c(NCc4cccc(I)c4)nc(Cl)nc32)[C@H](O)[C@@H]1O` [Cl-IB-MECA, 2-chloro-N^6-(3-iodobenzyl)adenosine-5′-N-methyluronamide] the “preconditioning / cardioprotective effect” value [3] was “caused a potent cardioprotective effect”, the “cardioprotective effect when present during prolonged hypoxia (CK released, % myocytes killed)” value [2] was “capable of protecting the cardiac myocytes against hypoxia-induced injury” and the “% myocytes killed” value [4] was 23.0±1.4%. The “apoptotic cell death (DNA laddering)” value [5] was “reduced apoptotic cell death of cardiac myocytes”, the “apoptotic cell death in the presence of 2-methylthioATP” value ([5]; co-incubation, no ischemia) was “resulted in a decrease in apoptotic cell death” and the “apoptosis (DNA laddering)” value ([5]; prolonged moderate ischemia, 17 hours with 2-3% O2) was “reduced apoptosis”.

In the case of `CNC(=O)C1OC(n2cnc3c(NCc4cccc(I)c4)nc(NC)nc32)C(O)C1O` (stereo not shown) [MRS 537], the “preconditioning / protection mediated via human adenosine A3 receptor” value [1] is reported as “can exert the cardioprotective effect of preconditioning via the human adenosine A3 receptor” and the “creatine kinase released during prolonged simulated ischemia” value [2] is reported as “cardioprotective effects”.

In the case of `CNC(=O)C1OC(n2cnc3c(NOc4ccccc4)ncnc32)C(O)C1O` (stereo not drawn) [Compound 11, 6-(O-Phenylhydroxylamino)purine-9-beta-ribofuranoside-5′-N-methyluronamide], the Ki (A3 receptor; Table II) is given as 1340 nM, the Ki (A1 receptor) is given as 2060 nM and the Ki (A2a receptor) is given as 66300 nM.

In the case of `CCNC(=O)C1OC(n2cnc3c(NC(=O)Nc4ccccc4C(F)(F)F)ncnc32)C(O)C1O` (stereo not shown) [Compound 4d, N^6-((2-trifluoromethyl)carbamoyl)adenosine-5′-uronamide], the Ki (A3 receptor; Table II) is given as 54 nM, the Ki (A1 receptor) is given as 384 nM and the Ki (A2a receptor) is given as greater than 10000 nM.

In the case of `CCNC(=O)C1OC(n2cnc3c(NC4CCCCC4)ncnc32)C(O)C1O` (stereo not shown) [N^6-cyclohexyl NECA, N6-cyclohexyl 5′-N-ethylcarboxamidoadenosine], the Ki (A3 receptor; Table II) is given as 16 nM.
